{"source": "patent US12280144B2", "about": "“Gel compositions for mitigation of burn injuries, kits containing the gel compositions, and associated methods” (priority 2019, dated 2025)", "key": {"[1]": {"settings": "cited from earlier work; for pKa: Table 1, pKa of the parent weak acid of the sodium salt; for pKa1 / pKa2: 25° C."}, "[2]": {"experiment": "Acid/base dissociation constants of weak acids and their sodium salts", "settings": "anion of the salt in water; for Kb: Kb=10^−pKb"}, "[3]": {"settings": "external use on burn wounds in HSST; cited from earlier work"}, "[4]": {"settings": "at 25° C.; KCl and NaHCO3 values are assumed (NaHCO3: Leaist et al); cited from earlier work"}}, "data": [{"molecule": "CC(O)C(=O)[O-].[Na+]", "note": "(stereo not shown) [Sodium Lactate]", "values": [{"measurement": "pKa", "setting": "[1]", "result": 3.86}]}, {"molecule": "O=C(O)CC(O)(CC(=O)O)C(=O)O", "note": "[Citric Acid]", "values": [{"measurement": "pKa1", "setting": "[1]", "result": 2.92}, {"measurement": "pKa2", "setting": "[1]", "result": 4.28}, {"measurement": "pKa3", "setting": "[1]", "result": 5.21}]}, {"molecule": "O=C([O-])O.[Na+]", "note": "[Sodium Bicarbonate]", "values": [{"measurement": "pKa1", "setting": "[1]", "result": 6.35}, {"measurement": "pKa2", "setting": "[1]", "result": 10.3}, {"measurement": "pKa", "setting": "[1]", "result": 6.35}, {"measurement": "Kb", "setting": "[2]", "result": "2.24*10^−6"}, {"measurement": "pKb", "setting": "[2]; pKb=14.00−pKa, 25° C.", "result": 7.65}]}, {"molecule": "CC(O)C(=O)O", "note": "(stereo not shown) [Lactic Acid]", "values": [{"measurement": "Kb", "setting": "[2]", "result": "7.24*10^−12"}]}, {"molecule": "CCN(CC)CC(=O)Nc1c(C)cccc1C", "note": "[lidocaine]", "values": [{"measurement": "dosage considered safe for external use", "setting": "[3]", "result": "less than 400 mg"}]}, {"molecule": "O=C([O-])CC(O)(CC(=O)[O-])C(=O)[O-].[Na+].[Na+].[Na+]", "note": "[Trisodium Citrate]", "values": [{"measurement": "pKa", "setting": "[1]", "result": 3.14}]}, {"molecule": "[Cl-].[K+]", "note": "[KCl]", "values": [{"measurement": "diffusivity in water DAB", "setting": "[4]", "result": "13.6·10^−6 cm^2/s"}]}]}
